Bridge positions count the residues as written; N and C are the ends. Square brackets hold non-standard residues; d marks the D form. Peptide text beside a SMILES is read from it. Hyp = O=C(O)[C@@H]1C[C@@H](O)CN1; Cit = NC(=O)NCCC[C@H](N)C(=O)O
Experiments:
hAMY3 receptor = molecular target: T1, hAMY3 receptor (Homo sapiens, UniProt O60896+P30988); test: cAMP assay for in vitro receptor activation, hAMY3-R; assay type: cell-based; details: cAMP assay, hAMY3 receptor; read-out: hAMY3R EC50
T1 sequence (P30988 25-474): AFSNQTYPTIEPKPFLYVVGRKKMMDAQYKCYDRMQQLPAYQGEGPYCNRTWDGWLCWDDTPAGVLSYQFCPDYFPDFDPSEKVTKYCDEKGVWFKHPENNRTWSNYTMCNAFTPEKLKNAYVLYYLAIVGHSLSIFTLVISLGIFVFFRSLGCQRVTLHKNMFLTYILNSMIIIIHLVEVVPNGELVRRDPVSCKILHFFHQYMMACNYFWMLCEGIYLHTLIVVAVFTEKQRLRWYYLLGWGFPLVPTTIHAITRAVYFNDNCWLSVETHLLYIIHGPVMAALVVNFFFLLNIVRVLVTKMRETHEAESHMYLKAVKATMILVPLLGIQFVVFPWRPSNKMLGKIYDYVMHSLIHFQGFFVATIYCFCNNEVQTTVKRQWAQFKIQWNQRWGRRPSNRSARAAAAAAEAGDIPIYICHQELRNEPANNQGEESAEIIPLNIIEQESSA
T1 sequence (O60896 24-148 partner): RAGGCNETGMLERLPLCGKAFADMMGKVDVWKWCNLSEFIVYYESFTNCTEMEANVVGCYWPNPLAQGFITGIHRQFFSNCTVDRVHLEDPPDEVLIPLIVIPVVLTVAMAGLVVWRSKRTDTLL
Summary of the method: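 Stable hAMY3 cells; DPBS + 0.05% casein + 0.5 mM IBMX; graded compound doses, 30 min, RT; cAMP via HTRF Gs kit, TR-FRET read at 1 h.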

[1] = Physical stability of peptide analogues (Thioflavin T fibrillation); assay type: physicochemical; details: maximum ThT signal normalized between hAMY maximum and buffer background; 40° C., shaking, four days; pH 7 per table title
Summary of the method: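 Maximum ThT emission at 480 nm, after LOESS smoothing, is given as percent of the span from buffer background to hAMY. Conditions: 50 mM buffer at pH 4 or 7, 4 μM dye, 40 °C, repeated shaking, readings every 10 min for four days.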

Q: Which EC50 (hAMY3 receptor) does the source give for CC[C@H](C)[C@H](NC(=O)[C@H](CCC(N)=O)NC(=O)[C@H](Cc1c[nH]cn1)NC(=O)[C@H](C)NC(=O)[C@H](CC(C)C)NC(=O)[C@H](CCCNC(N)=O)NC(=O)[C@H](CCC(N)=O)NC(=O)[C@@H](NC(=O)[C@@H](NC(=O)[C@@H]1CSSC[C@H](NC(=O)CN)C(=O)N[C@@H](CCCNC(=N)N)C(=O)N[C@@H](Cc2ccccc2)C(=O)NCC(=O)N[C@@H]([C@@H](C)O)C(=O)N1)[C@@H](C)O)C(C)C)C(=O)N[C@@H](Cc1ccc(O)cc1)C(=O)N[C@@H](CCC(N)=O)C(=O)N[C@@H](Cc1ccccc1)C(=O)N[C@H](C(=O)N[C@@H](CC(=O)O)C(=O)N[C@@H](CCCCN)C(=O)N[C@@H](CC(=O)O)C(=O)N[C@@H](CCCCN)C(=O)N[C@@H](CC(=O)O)C(=O)N[C@@H](CC(N)=O)C(=O)N[C@H](C(=O)N[C@@H](C)C(=O)N1CCC[C@H]1C(=O)N[C@@H](CCCNC(=N)N)C(=O)N[C@H](C(=O)N[C@@H](CC(N)=O)C(=O)N[C@H](C(=O)NCC(=O)N1CCC[C@H]1C(=O)N[C@@H](CCC(N)=O)C(=O)NCC(=O)N1C[C@H](O)C[C@H]1C(N)=O)C(C)C)[C@@H](C)O)C(C)C)[C@@H](C)O [compound 267] (H-GCRFGTCTVQ[Cit]LAHQIYQFTDKDKDNVAPRTNVGPQG[Hyp]-NH2; disulfide 2-7; N-terminus assumed) here?
A: Its EC50 is 0.007 nM.

Q: What about the “Max ThT signal (%)” value [1] of the same compound?
A: Its value is 30.900%.

Q: For CC[C@H](C)[C@H](NC(=O)[C@H](CCC(N)=O)NC(=O)[C@H](Cc1c[nH]cn1)NC(=O)[C@H](C)NC(=O)[C@H](CC(C)C)NC(=O)[C@H](CCCNC(N)=O)NC(=O)[C@H](CCC(N)=O)NC(=O)[C@@H](NC(=O)[C@@H](NC(=O)[C@@H]1CSSC[C@H](NC(=O)CN)C(=O)N[C@@H](CCCNC(=N)N)C(=O)N[C@@H](Cc2ccccc2)C(=O)NCC(=O)N[C@@H]([C@@H](C)O)C(=O)N1)[C@@H](C)O)C(C)C)C(=O)N[C@@H](Cc1ccc(O)cc1)C(=O)N[C@@H](CCC(N)=O)C(=O)N[C@@H](Cc1ccccc1)C(=O)N[C@H](C(=O)N[C@@H](CC(=O)O)C(=O)N[C@@H](CCCCN)C(=O)N[C@@H](CC(=O)O)C(=O)N[C@@H](CCCCN)C(=O)N[C@@H](CC(=O)O)C(=O)N[C@@H](CC(N)=O)C(=O)N[C@H](C(=O)N[C@@H](C)C(=O)N1CCC[C@H]1C(=O)N[C@@H](CCCNC(=N)N)C(=O)N[C@H](C(=O)N[C@@H](CC(N)=O)C(=O)N[C@H](C(=O)NCC(=O)N1CCC[C@H]1C(=O)N[C@@H](CC(N)=O)C(=O)NCC(=O)N1C[C@H](O)C[C@H]1C(N)=O)C(C)C)[C@@H](C)O)C(C)C)[C@@H](C)O [compound 270] (H-GCRFGTCTVQ[Cit]LAHQIYQFTDKDKDNVAPRTNVGPNG[Hyp]-NH2; disulfide 2-7; N-terminus assumed), which EC50 (hAMY3 receptor) is on record?
A: Its EC50 is 0.003 nM.

Q: What about the “Max ThT signal (%)” value [1] of the same compound?
A: The value was 25.450%.

Q: What does the source list for CC[C@H](C)[C@H](NC(=O)[C@H](CCC(N)=O)NC(=O)[C@H](Cc1c[nH]cn1)NC(=O)[C@H](C)NC(=O)[C@H](CC(C)C)NC(=O)[C@H](CCCNC(N)=O)NC(=O)[C@H](CCC(N)=O)NC(=O)[C@@H](NC(=O)[C@@H](NC(=O)[C@@H]1CSSC[C@H](NC(=O)CN)C(=O)N[C@@H](CCCNC(=N)N)C(=O)N[C@@H](Cc2ccccc2)C(=O)NCC(=O)N[C@@H]([C@@H](C)O)C(=O)N1)[C@@H](C)O)C(C)C)C(=O)N[C@@H](Cc1ccc(O)cc1)C(=O)N[C@@H](CCC(N)=O)C(=O)N[C@@H](Cc1ccccc1)C(=O)N[C@H](C(=O)N[C@@H](CC(=O)O)C(=O)N[C@@H](CCCCN)C(=O)N[C@@H](CC(=O)O)C(=O)N[C@@H](CCCCN)C(=O)N[C@@H](CC(=O)O)C(=O)N[C@@H](CC(N)=O)C(=O)N[C@H](C(=O)N[C@@H](C)C(=O)N1CCC[C@H]1C(=O)N[C@@H](CCCNC(=N)N)C(=O)N[C@H](C(=O)N[C@@H](CC(N)=O)C(=O)N[C@H](C(=O)N[C@@H](CO)C(=O)N1CCC[C@H]1C(=O)N[C@@H](CC(N)=O)C(=O)NCC(=O)N[C@@H](Cc1ccc(O)cc1)C(N)=O)C(C)C)[C@@H](C)O)C(C)C)[C@@H](C)O [compound 271] (H-GCRFGTCTVQ[Cit]LAHQIYQFTDKDKDNVAPRTNVSPNGY-NH2; disulfide 2-7; N-terminus assumed)?
A: EC50 (hAMY3 receptor): 0.01 nM; Max ThT signal (%) [1]: 10.850%

Q: What does the source list for CC[C@H](C)[C@H](NC(=O)[C@H](CCCCN)NC(=O)[C@@H](NC(=O)[C@H](CCCNC(=N)N)NC(=O)[C@@H]1CCCN1C(=O)[C@H](C)NC(=O)[C@@H](NC(=O)[C@H](CC(N)=O)NC(=O)[C@H](CC(=O)O)NC(=O)[C@H](CCCCN)NC(=O)[C@H](CC(=O)O)NC(=O)[C@H](CCCCN)NC(=O)[C@H](CC(=O)O)NC(=O)[C@@H](NC(=O)[C@H](Cc1ccccc1)NC(=O)[C@H](CCC(N)=O)NC(=O)[C@H](Cc1ccc(O)cc1)NC(=O)[C@@H](NC(=O)[C@H](CCC(N)=O)NC(=O)[C@H](Cc1c[nH]cn1)NC(=O)[C@H](C)NC(=O)[C@H](CC(C)C)NC(=O)[C@H](CCCNC(N)=O)NC(=O)[C@H](CCC(N)=O)NC(=O)[C@@H](NC(=O)[C@@H](NC(=O)[C@@H]1CSSC[C@H](NC(=O)CN)C(=O)N[C@@H](CCCNC(=N)N)C(=O)N[C@@H](Cc2ccccc2)C(=O)NCC(=O)N[C@@H]([C@@H](C)O)C(=O)N1)[C@@H](C)O)C(C)C)[C@@H](C)CC)[C@@H](C)O)C(C)C)[C@@H](C)O)C(=O)NCC(=O)N1CCC[C@H]1C(=O)N[C@@H](CCC(N)=O)C(=O)NCC(=O)N1C[C@H](O)C[C@H]1C(N)=O [compound 274] (H-GCRFGTCTVQ[Cit]LAHQIYQFTDKDKDNVAPRTKIGPQG[Hyp]-NH2; disulfide 2-7; N-terminus assumed)?
A: EC50 (hAMY3 receptor): 0.019 nM; Max ThT signal (%) [1]: 26.800%

Q: What does the source list for CC[C@H](C)[C@H](NC(=O)[C@H](CCC(N)=O)NC(=O)[C@H](Cc1c[nH]cn1)NC(=O)[C@H](C)NC(=O)[C@H](CC(C)C)NC(=O)[C@H](CCCNC(N)=O)NC(=O)[C@H](CCC(N)=O)NC(=O)[C@@H](NC(=O)[C@@H](NC(=O)[C@@H]1CSSC[C@H](NC(=O)CN)C(=O)N[C@@H](CCCNC(=N)N)C(=O)N[C@@H](Cc2ccccc2)C(=O)NCC(=O)N[C@@H]([C@@H](C)O)C(=O)N1)[C@@H](C)O)C(C)C)C(=O)N[C@@H](Cc1ccc(O)cc1)C(=O)N[C@@H](CCC(N)=O)C(=O)N[C@@H](Cc1ccccc1)C(=O)N[C@H](C(=O)N[C@@H](CC(=O)O)C(=O)N[C@@H](CCCCN)C(=O)N[C@@H](CC(=O)O)C(=O)N[C@@H](CCCCN)C(=O)N[C@@H](CC(=O)O)C(=O)N[C@@H](CC(N)=O)C(=O)N[C@H](C(=O)N[C@@H](C)C(=O)N1CCC[C@H]1C(=O)N[C@@H](CCCNC(=N)N)C(=O)N[C@H](C(=O)N[C@@H](CC(N)=O)C(=O)N[C@H](C(=O)N[C@@H](CO)C(=O)N1CCC[C@H]1C(=O)N[C@@H](CCC(N)=O)C(=O)NCC(=O)N[C@@H](Cc1ccc(O)cc1)C(N)=O)C(C)C)[C@@H](C)O)C(C)C)[C@@H](C)O [compound 278] (H-GCRFGTCTVQ[Cit]LAHQIYQFTDKDKDNVAPRTNVSPQGY-NH2; disulfide 2-7; N-terminus assumed)?
A: EC50 (hAMY3 receptor): 0.011 nM; Max ThT signal (%) [1]: 13.350%

Q: For CC(C)C[C@H](NC(=O)[C@H](CCCNC(N)=O)NC(=O)[C@H](CCC(N)=O)NC(=O)[C@@H](NC(=O)[C@@H](NC(=O)[C@@H]1CSSC[C@H](NC(=O)CN)C(=O)N[C@@H](CCCNC(=N)N)C(=O)N[C@@H](Cc2ccccc2)C(=O)NCC(=O)N[C@@H]([C@@H](C)O)C(=O)N1)[C@@H](C)O)C(C)C)C(=O)N[C@@H](C)C(=O)N[C@@H](Cc1c[nH]cn1)C(=O)N[C@@H](Cc1ccccc1)C(=O)N[C@@H](CC(C)C)C(=O)N[C@@H](Cc1ccc(O)cc1)C(=O)N[C@@H](CCC(N)=O)C(=O)N[C@@H](Cc1ccccc1)C(=O)N[C@H](C(=O)N[C@@H](CC(=O)O)C(=O)N[C@@H](CCCCN)C(=O)N[C@@H](CC(=O)O)C(=O)N[C@@H](CCCCN)C(=O)N[C@@H](CC(=O)O)C(=O)N[C@@H](CC(N)=O)C(=O)N[C@H](C(=O)N[C@@H](C)C(=O)N1CCC[C@H]1C(=O)N[C@@H](CCCNC(=N)N)C(=O)N[C@H](C(=O)N[C@@H](CCCCN)C(=O)N[C@H](C(=O)NCC(=O)N[C@@H](CO)C(=O)N[C@@H](CC(N)=O)C(=O)NCC(=O)N[C@@H](Cc1ccc(O)cc1)C(N)=O)C(C)C)[C@@H](C)O)C(C)C)[C@@H](C)O [compound 279] (H-GCRFGTCTVQ[Cit]LAHFLYQFTDKDKDNVAPRTKVGSNGY-NH2; disulfide 2-7; N-terminus assumed), which EC50 (hAMY3 receptor) is on record?
A: The EC50 was 0.013 nM.

Q: What about the “Max ThT signal (%)” value [1] of the same compound?
A: The value was 13.450%.

— patent publication US12139520B2 (priority 2020, dated 2024)
